From paper PMC12315041 (ACS medicinal chemistry letters, 2025)

Biological target: T1, RIPK1 (receptor-interacting protein kinase 1) (Homo sapiens, UniProt Q13546)
T1 sequence (Q13546 1-671): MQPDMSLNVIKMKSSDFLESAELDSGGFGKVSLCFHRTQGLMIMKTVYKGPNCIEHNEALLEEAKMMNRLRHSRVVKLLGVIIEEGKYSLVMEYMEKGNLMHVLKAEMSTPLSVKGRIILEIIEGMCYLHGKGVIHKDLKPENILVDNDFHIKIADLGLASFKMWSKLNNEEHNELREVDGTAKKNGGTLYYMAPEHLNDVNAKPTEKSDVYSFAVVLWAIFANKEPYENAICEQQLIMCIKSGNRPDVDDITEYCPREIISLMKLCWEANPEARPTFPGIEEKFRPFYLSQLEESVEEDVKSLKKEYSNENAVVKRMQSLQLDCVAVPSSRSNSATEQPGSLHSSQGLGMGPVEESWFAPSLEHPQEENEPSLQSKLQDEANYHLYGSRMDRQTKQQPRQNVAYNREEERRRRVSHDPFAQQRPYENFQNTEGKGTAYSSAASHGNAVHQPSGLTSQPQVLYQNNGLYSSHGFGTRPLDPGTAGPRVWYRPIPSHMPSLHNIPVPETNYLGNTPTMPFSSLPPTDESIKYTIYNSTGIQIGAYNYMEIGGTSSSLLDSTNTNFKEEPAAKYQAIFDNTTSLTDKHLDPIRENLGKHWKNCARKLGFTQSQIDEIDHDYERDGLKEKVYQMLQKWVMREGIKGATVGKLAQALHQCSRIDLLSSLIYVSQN
Test: TR-FRET saturation binding

Kd: 443 nM
SMILES: Nc1ncnc2c1c(-c1ccc3c(c1)CCN3C(=O)Cc1cccc(OC(F)(F)F)c1)cn2CCCNC(=O)CCc1ccc2n1[B-](F)(F)[N+]1=C(c3ccc[nH]3)C=CC1=C2 [T2-BDP-589, T2-BODIPY-589]
